Counter-ions that a name gives are not always drawn.

The target in the assay is Proton Pump (H^+/K^+-ATPase) (Sus scrofa, UniProt P19156). Kind of assay: Inhibitory effects on proton pump (H^+/K^+-ATPase) activity. The class given is biochemical. To be noted: hog gastric vesicles; K^+ stimulated H^+/K^+-ATPase activity; 30 minutes at 37° C.
Chain of Proton Pump (H^+/K^+-ATPase) (P19156 2-1034 limits assumed): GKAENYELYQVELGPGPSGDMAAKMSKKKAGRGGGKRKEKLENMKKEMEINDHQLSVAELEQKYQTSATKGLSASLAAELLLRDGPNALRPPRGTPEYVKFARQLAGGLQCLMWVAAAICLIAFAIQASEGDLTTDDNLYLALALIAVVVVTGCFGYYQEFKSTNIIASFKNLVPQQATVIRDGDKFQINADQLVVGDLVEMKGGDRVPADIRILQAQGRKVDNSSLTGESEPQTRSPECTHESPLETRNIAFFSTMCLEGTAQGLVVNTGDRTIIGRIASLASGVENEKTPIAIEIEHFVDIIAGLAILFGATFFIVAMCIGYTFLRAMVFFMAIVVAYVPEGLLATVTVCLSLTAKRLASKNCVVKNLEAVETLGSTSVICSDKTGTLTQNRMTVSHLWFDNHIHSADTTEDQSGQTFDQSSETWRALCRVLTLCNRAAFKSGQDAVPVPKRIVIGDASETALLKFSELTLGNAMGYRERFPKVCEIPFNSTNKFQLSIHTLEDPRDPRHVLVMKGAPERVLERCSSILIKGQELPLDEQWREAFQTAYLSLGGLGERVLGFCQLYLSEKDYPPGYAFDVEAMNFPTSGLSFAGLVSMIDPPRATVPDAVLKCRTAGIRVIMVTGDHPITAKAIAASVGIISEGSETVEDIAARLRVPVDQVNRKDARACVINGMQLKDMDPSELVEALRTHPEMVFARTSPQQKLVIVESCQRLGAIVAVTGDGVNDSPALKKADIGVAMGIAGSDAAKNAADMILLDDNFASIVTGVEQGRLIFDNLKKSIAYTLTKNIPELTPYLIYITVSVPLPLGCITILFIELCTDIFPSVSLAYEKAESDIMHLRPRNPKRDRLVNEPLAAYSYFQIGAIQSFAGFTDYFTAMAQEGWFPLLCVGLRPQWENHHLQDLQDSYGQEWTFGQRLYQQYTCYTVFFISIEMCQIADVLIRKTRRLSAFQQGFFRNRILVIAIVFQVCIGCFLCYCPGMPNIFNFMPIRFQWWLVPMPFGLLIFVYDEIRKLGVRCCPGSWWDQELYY
Chain of Proton Pump (H^+/K^+-ATPase) (P18434 whole entry partner): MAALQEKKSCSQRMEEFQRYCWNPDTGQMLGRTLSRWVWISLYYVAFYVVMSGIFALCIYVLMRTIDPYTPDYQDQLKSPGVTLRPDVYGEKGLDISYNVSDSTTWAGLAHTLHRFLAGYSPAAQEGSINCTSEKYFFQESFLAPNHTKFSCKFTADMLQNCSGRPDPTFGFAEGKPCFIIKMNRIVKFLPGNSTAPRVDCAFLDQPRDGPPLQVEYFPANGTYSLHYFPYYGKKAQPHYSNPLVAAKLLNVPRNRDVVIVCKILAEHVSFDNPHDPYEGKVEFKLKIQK
On to `Cc1c(C)n(Cc2cccc(Cl)c2)c2c(N3CCc4ccccc4C3)nc(C=O)cc12` [Example 863, 1-(3-chlorobenzyl)-7-(3,4-dihydro-1H-isoquinolin-2-yl)-2,3-dimethyl-1H-pyrrolo[2,3-c]pyridin-5-carbaldehyde], for which the IC50 was determined as 109 nM.
In turn, `CCn1c(C)c(C)c2cc(C(=O)N3CC=CCC3)nc(N3CCc4ccccc4C3)c21` [Example 809, [7-(3,4-dihydro-1H-isoquinolin-2-yl)-1-ethyl-2,3-dimethyl-1H-pyrrolo[2,3-c]pyridin-5-yl]-(3,6-dihydro-2H-pyridin-1-yl)-methanone hydrochloride] displayed an IC50 of 59 nM.
Regarding `COCCn1c(C)c(C)c2ccnc(N3CCc4ccccc4C3C)c21` (centres unmarked) [Example 555, 2-[1-(2-methoxyethyl)-2,3-dimethyl-1H-pyrrolo[2,3-c]pyridin-7-yl]-1-methyl-1,2,3,4-tetrahydroisoquinoline hydrochloride], the IC50 was 230 nM.
Under `Cc1c(C)n(CC2CC2)c2c(N(C)Cc3ccc(F)cc3)nccc12` [Example 144, 1-cyclopropylmethyl-7-[N-(4-fluorobenzyl)-N-methyl]amino-2,3-dimethyl-1H-pyrrolo[2,3-c]pyridine hydrochloride] stands 200 nM; under `CCCn1c(C)c(C)c2ccnc(NCc3ccc(C)cc3)c21` [Example 205, 2,3-dimethyl-7-(4-methylbenzylamino)-1-propyl-1H-pyrrolo[2,3-c]pyridine hydrochloride], 330 nM.
For `CCn1c(C)c(C)c2ccnc(NCc3ccccc3C)c21` [Example 225, 1-ethyl-2,3-dimethyl-7-(2-methylbenzylamino)-1H-pyrrolo[2,3-c]pyridine hydrochloride] the value was 350 nM; for `Cc1c(C)n(Cc2ccccc2)c2c(-c3ccc(Cl)cc3)nccc12` [Example 301, 1-benzyl-7-(4-chlorophenyl)-2,3-dimethyl-1H-pyrrolo[2,3-c]pyridine hydrochloride], 384 nM.
`C#CCn1c(C)c(C)c2ccnc(-c3ccc(OC)cc3)c21` [Example 354, 7-(4-methoxyphenyl)-2,3-dimethyl-1-(prop-2-ynyl)-1H-pyrrolo[2,3-c]pyridine hydrochloride]: the IC50 turned out to be 150 nM.
For `CCCn1c(C)c(C)c2cc(C(=O)N3CCN(C)CC3)nc(N3CCc4ccccc4C3)c21` [Example 825, [7-(3,4-dihydro-1H-isoquinolin-2-yl)-2,3-dimethyl-1-propyl-1H-pyrrolo[2,3-c]pyridin-5-yl]-(4-methylpiperazin-1-yl)-methanone hydrochloride] the value was 24 nM.
Under `COc1cccc(Cn2c(C)c(C)c3ccnc(N4CCc5ccccc5C4)c32)c1` [Example 510, 1-(3-methoxybenzyl)-7-(1,2,3,4-tetrahydroisoquinolin-2-yl)-2,3-dimethyl-1H-pyrrolo[2,3-c]pyridine hydrochloride] stands 56 nM; under `Cc1[nH]c2c(N3CCc4ccccc4C3)nc(C(=O)N3CCOCC3)cc2c1C` [Example 776, [7-(3,4-dihydro-1H-isoquinolin-2-yl)-2,3-dimethyl-1H-pyrrolo[2,3-c]pyridin-5-yl]-(morpholin-4-yl)-methanone], 85 nM; under `CC(C)=CCn1c(C)c(C)c2ccnc(N3CCc4ccccc4C3)c21` [Example 475, 1-(3-methylbut-2-enyl)-7-(1,2,3,4-tetrahydroisoquinolin-2-yl)-2,3-dimethyl-1H-pyrrolo[2,3-c]pyridine hydrochloride], 300 nM.
`Cc1c(C)n(CCC(C)Cl)c2c(N3CCc4ccccc4C3)nccc12` (centres unmarked) [Example 513, 1-(3-chlorobutyl)-7-(1,2,3,4-tetrahydroisoquinolin-2-yl)-2,3-dimethyl-1H-pyrrolo[2,3-c]pyridine hydrochloride] returned an IC50 of 74 nM.
`COCCn1c(C)c(C)c2ccnc(N3CCc4ccccc4C3)c21` [Example 499, 1-(2-methoxyethyl)-7-(1,2,3,4-tetrahydroisoquinolin-2-yl)-2,3-dimethyl-1H-pyrrolo[2,3-c]pyridine hydrochloride]: the IC50 amounted to 65 nM.
Regarding `C=CCn1c(C)c(C)c2ccnc(N3CCc4ccccc4C3)c21` [Example 486, 1-allyl-7-(1,2,3,4-tetrahydroisoquinolin-2-yl)-2,3-dimethyl-1H-pyrrolo[2,3-c]pyridine tartrate], the concentration for half-maximal inhibition (IC50) was 8 nM.
In the case of `Cc1cccc(Cn2c(C)c(C)c3ccnc(N4CCc5ccccc5C4)c32)c1` [Example 515, 1-(3-methylbenzyl)-7-(1,2,3,4-tetrahydroisoquinolin-2-yl)-2,3-dimethyl-1H-pyrrolo[2,3-c]pyridine hydrochloride], 200 nM corresponded to half-maximal inhibition (IC50).
`COCCn1c(C)c(C)c2ccnc(-c3ccc(SC)cc3)c21` [Example 264, 1-(2-methoxyethyl)-2,3-dimethyl-7-(4-methylsulfanylphenyl)-1H-pyrrolo[2,3-c]pyridine hydrochloride] had an IC50 of 490 nM.
`COCCn1c(C)c(C)c2ccnc(CN(C)c3ccc(F)cc3)c21` [Example 120, N-(4-fluorophenyl)-N-[1-(2-methoxyethyl)-2,3-dimethyl-1H-pyrrolo[2,3-c]pyridin-7-ylmethyl]-methylamine hydrochloride] yielded an IC50 of 444 nM.
`Cc1nc(Cn2c(C)c(C)c3ccnc(N4CCc5ccccc5C4C)c32)cs1` (centres unmarked) [Example 559, 2-[2,3-dimethyl-1-(2-methylthiazol-4-ylmethyl)-1H-pyrrolo[2,3-c]pyridin-7-yl]-1-methyl-1,2,3,4-tetrahydroisoquinoline hydrochloride] returned an IC50 of 159 nM.
`Cc1c(C)n(Cc2ccccc2)c2c(N3CCc4ccccc4C3)nc(C(=O)N3CCOCC3)cc12` [Example 769, [1-benzyl-7-(3,4-dihydro-1H-isoquinolin-2-yl)-2,3-dimethyl-1H-pyrrolo[2,3-c]pyridin-5-yl]-(morpholin-4-yl)-methanone hydrochloride] yielded an IC50 of 103 nM.
With `C=Cc1ccc(-c2nccc3c(C)c(C)[nH]c23)cc1` [Example 242, 2,3-dimethyl-7-(4-vinylphenyl)-1H-pyrrolo[2,3-c]pyridine], the IC50 was found to be 100 nM.
As for `Cc1c(C)n(Cc2cccc(Cl)c2)c2c(N3CCc4ccccc4C3)nc(C(=O)N3CCN(C)CC3)cc12` [Example 836, [1-(3-chlorobenzyl)-7-(3,4-dihydro-1H-isoquinolin-2-yl)-2,3-dimethyl-1H-pyrrolo[2,3-c]pyridin-5-yl]-(4-methylpiperazin-1-yl)-methanone hydrochloride], inhibition was half-maximal at 129 nM (IC50).
Under `Cc1c(C)n(CC(C)C)c2c(CCc3ccccc3)nccc12` [Example 447, 1-isobutyl-2,3-dimethyl-7-phenethyl-1H-pyrrolo[2,3-c]pyridine hydrochloride] stands 460 nM; under `CCC1c2ccccc2CCN1c1nccc2c(C)c(C)n(CCOC)c12` (centres unmarked) [Example 585, 1-ethyl-2-[1-(2-methoxyethyl)-2,3-dimethyl-1H-pyrrolo[2,3-c]pyridin-7-yl]-1,2,3,4-tetrahydroisoquinoline hydrochloride], 370 nM; under `Cc1c(C)n(CC2CCC2)c2c(N3CCc4ccccc4C3)nc(C(=O)N3CCN(C)CC3)cc12` [Example 830, [1-cyclobutylmethyl-7-(3,4-dihydro-1H-isoquinolin-2-yl)-2,3-dimethyl-1H-pyrrolo[2,3-c]pyridin-5-yl]-(4-methylpiperazin-1-yl)-methanone hydrochloride], 44 nM.
For `COc1cccc(Cn2c(C)c(C)c3ccnc(-c4ccc(SC)cc4)c32)c1` [Example 266, 1-(3-methoxybenzyl)-2,3-dimethyl-7-(4-methylsulfanylphenyl)-1H-pyrrolo[2,3-c]pyridine hydrochloride] the value was 140 nM; for `CC(C)=CCn1c(C)c(C)c2cc(C(=O)N3CCN(C)CC3)nc(N3CCc4ccccc4C3)c21` [Example 834, [7-(3,4-dihydro-1H-isoquinolin-2-yl)-2,3-dimethyl-1-(3-methylbut-2-enyl)-1H-pyrrolo[2,3-c]pyridin-5-yl]-(4-methylpiperazin-1-yl)-methanone hydrochloride], 37 nM; for `Cc1ccccc1CNc1nccc2c(C)c(C)n(Cc3ccccc3)c12` [Example 216, 1-benzyl-2,3-dimethyl-7-(2-methylbenzylamino)-1H-pyrrolo[2,3-c]pyridine hydrochloride], 260 nM.
In turn, `CC=Cn1c(C)c(C)c2ccnc(CNc3ccc(F)cc3)c21` [Example 108, N-(2,3-dimethyl-1-propenyl-1H-pyrrolo[2,3-c]pyridin-7-ylmethyl)-4-fluorophenylamine hydrochloride] came in with an IC50 of 424 nM.
Molecule `Cc1c(C)n(Cc2cccc(Cl)c2)c2c(N3CCc4ccccc4C3)nc(-c3nnn[nH]3)cc12` [Example 852, 2-[1-(3-chlorobenzyl)-2,3-dimethyl-5-(1H-tetrazol-5-yl)-1H-pyrrolo[2,3-c]pyridin-7-yl]-1,2,3,4-tetrahydroisoquinoline] had a half-maximal inhibitory concentration (IC50) of 427 nM.
Consider `Cc1c(C)n(Cc2cccc(F)c2)c2c(N3CCc4ccccc4C3)nc(CO)cc12` [Example 851, 7-(3,4-dihydro-1H-isoquinolin-2-yl)-1-(3-fluorobenzyl)-2,3-dimethyl-1H-pyrrolo[2,3-c]pyridin-5-yl]-methanol hydrochloride], for which 32 nM corresponded to half-maximal inhibition (IC50).
`CCCn1c(C)c(C)c2ccnc(NCc3ccccc3C)c21` [Example 230, 2,3-dimethyl-7-(2-methylbenzylamino)-1-propyl-1H-pyrrolo[2,3-c]pyridine hydrochloride] showed an IC50 of 92 nM.
Under `C=CCn1c(C)c(C)c2ccnc(N3CCc4ccccc4C3C3CC3)c21` (centres unmarked) [Example 570, 2-(1-allyl-2,3-dimethyl-1H-pyrrolo[2,3-c]pyridin-7-yl)-1-cyclopropyl-1,2,3,4-tetrahydroisoquinoline hydrochloride] stands 120 nM; under `Cc1ccc(Cn2c(C)c(C)c3ccnc(CCc4ccccc4)c32)cc1` [Example 444, 2,3-dimethyl-1-(4-methylbenzyl)-7-phenethyl-1H-pyrrolo[2,3-c]pyridine hydrochloride], 122 nM; under `C=CCn1c(C)c(C)c2ccnc(COc3ccc(F)cc3)c21` [Example 2, 1-allyl-7-(4-fluorophenoxymethyl)-2,3-dimethyl-1H-pyrrolo[2,3-c]pyridine hydrochloride], 410 nM.

The term IC50 denotes the concentration that gives 50% inhibition. Read a high IC50 as weaker potency in that assay.

(Values after patent US7662832B2, “Pyrrolo[2,3-c]pyridine derivatives and processes for the preparation thereof” (priority 2004, dated 2010).)
